Measured values: publication PMC9174720, “Evaluation of antioxidant and cytotoxic properties of phenolic N-acylhydrazones: structure–activity relationship” (Royal Society Open Science, 2022)
Like-named read-outs stand apart in the source and are kept apart here.

How the values were obtained:
HCT-116 = assay: MTT cytotoxicity assay on HCT-116 cells; assay type: cell-based, human; details: for IC50: Homo sapiens, HCT-116 cell line, read-out: Growth inhibitory effects IC50; for selectivity index (SI): ratio of IC50 values of MRC-5 and HCT-116, values greater than 1 indicate selectivity toward cancer cell line
Description: (§1) In this in vitro study, we investigated the influence of PheNAHs on two model systems: human colorectal carcinoma HCT-116 and human healthy fibroblast cell line MRC-5. Both cell lines of low passages were purchased from the European collection of authenticated cell cultures (ECACC) and were cultivated in Dulbecco's Modified Eagle Medium (DMEM) (Sigma, D5796) cell culture medium supplemented with 10% foetal bovine serum (Sigma, F4135-500 ML) and 1% penicillin/streptomycin (Sigma, P4333-100 ML) in 75 cm^2 culture flasks. The cells were maintained according to the standardized procedure in the incubator with humidified atmosphere supplemented with 5% CO2 at a physiological temperature of 37°C, and after a few passages and a confluence of about 80%, the cells were used in all in vitro experiments (Laboratory for Bioengineering protocol CB-003).
(§2) The ability of synthesized compounds to inhibit the growth of two different cell lines was estimated by a standardized 3-(4,5-dimethylthiazol-2-yl)-2,5-diphenyltetrazolium bromide (MTT) assay (Laboratory for Bioengineering protocol CB-005). The approximative number of 10 000 cells per well (in 96-well microplates) were seeded and kept in the incubator for 24 h to enable cell adhesion. After the incubation period, the cells were treated with investigated compounds in the concentration range from 0,1 to 500 µM dissolved in DMEM. Cytotoxic effect was evaluated 24 and 72 h from treatment by following the number of survived cells, thus the cell viability. MTT assay is based on spectrophotometric measurement of reduction rate of 3-(4,5-dimethylthiazol-2-yl)-2,5-diphenyltetrazolium bromide (MTT, Acros Organics, 158990010) to purple formazan crystals subsequently dissolved in DMSO (Fisher Chemical, D/4121/PB15) on a microplate reader (Rayto 2100C) at 550 nm. The percentage of the survived (viable) cells was estimated by dividing the absorbance of the treatment with the absorbance of the control (non-treated) cells and multiplied by 100 [47]. As positive controls, Leucovorin and Irinotecan were selected as compounds used in colon cancer treatment.
(§3) Biological activity was the result of two individual experiments, performed in triplicate for each dose. Statistical analyses were determined using the one-way analysis of variance (ANOVA) test for multiple comparisons, SPSS (Chicago, IL) statistical software package (SPSS for Windows, v. 17, 2008). The IC50 values were calculated from the dose curves by a computer program (CalcuSyn). IC50 values represent the half-maximal inhibitory concentration of tested compounds to measure the influence in inhibition of cell growth for 50%. […] At the beginning of the process of selecting the anti-cancer drug candidate, it is necessary to make a rough preselection between the tested substances. In vitro analysis on cancer and healthy cell lines is quantified in different ways, selectivity also. The selectivity index (SI) of tested drugs usually refers to the simple ratio of IC50 values determined for cancer and healthy cells. Also, the SI can be used for the expression of many other examples, such as SI between antibacterial and antiviral effect, discrimination of the drugs effect between many cancer cell lines, etc. In our experimentation, the values greater than ‘1’ indicate selectivity of the tested substance toward cancer cell line.

MRC-5 = assay: MTT cytotoxicity assay on MRC-5 cells; assay type: cell-based; details: Homo sapiens, MRC5, MRC-5 cell line, read-out: Growth inhibitory effects IC50
Description: as §1, §2, §3

[1] = DPPH radical scavenging assay; assay type: biochemical; details: for IC50: DPPH 0.05 mM in methanol, incubated 20 and 60 min, absorbance at 517 nm, mean ± s.d. of three measurements, read-out: IC50 for inactivation of DPPH free radical; for stoichiometric factor (SF): SF=[DPPH]/(2×IC50), good antioxidant if SF ≥ 2
Description: The antioxidant screening of all PheNAHs was performed using the 2,2-diphenyl-1-picrylhydrazyl (DPPH) method. The solution of DPPH radical in methanol (0.05 mM, 1 ml) was mixed with the tested compound (20 µl of different concentrations in dimethyl sulfoxide (DMSO) and 980 µl of methanol). The reaction mixture was incubated in the dark at room temperature for 20 and 60 min after which the absorbance of the sample was measured spectrophotometrically at 517 nm. All measurements were performed in triplicate. Methanol was used as a control solution, whereas quercetin and nordihydroguaiaretic acid (NDGA) were used as reference compounds. […] IC50 is defined as the minimal concentration of tested compound required for reaching 50% of a maximum scavenging capacity. The results were presented as mean values ± standard deviation (s.d.) of three independent measurements. The stoichiometric factor (SF) was calculated for all compounds using the equation [45, 46]:1 SF=[DPPH]/(2×IC50)

SMILES	IC50 [1]	IC50 (HCT-116; 24 h exposure)	IC50 (HCT-116; 72 h exposure)	IC50 (MRC-5; 24 h exposure)	IC50 (MRC-5; 72 h exposure)	stoichiometric factor (SF) [1]	selectivity index (SI) (HCT-116; after 24 h exposure)	selectivity index (SI) (HCT-116; after 72 h exposure)
O=C(N/N=C/c1ccccc1)c1cc(O)c(O)c(O)c1 [5a]	1.3 ± 0.1 µM	247 µM	63.5 µM	175 µM	59.2 µM	9.6	0.71	0.93
O=C(N/N=C/c1ccccc1O)c1cc(O)c(O)c(O)c1 [5b]	1.2 ± 0.1 µM	62.6 µM	32.4 µM	104 µM	52.1 µM	10.4	1.67	1.61
O=C(N/N=C/c1ccc(O)cc1)c1cc(O)c(O)c(O)c1 [5c]	2.9 ± 0.1 µM	71.8 µM	38.5 µM	92 µM	31.9 µM	4.3	1.28	0.83
COc1cccc(/C=N/NC(=O)c2cc(O)c(O)c(O)c2)c1O [5d]	1 ± 0.1 µM	89.9 µM	> 500 µM	180 µM	458 µM	12.5	2.00	<0.92
COc1cc(/C=N/NC(=O)c2cc(O)c(O)c(O)c2)cc(OC)c1O [5f]	1.1 ± 0.1 µM	86.9 µM	43.6 µM	84.3 µM	40 µM	11.4	0.97	0.92
O=C(N/N=C/c1ccc(O)cc1O)c1cc(O)c(O)c(O)c1 [5g]	0.9 ± 0.1 µM	99.9 µM	77.3 µM	76.4 µM	78.6 µM	13.9	0.76	1.02
O=C(N/N=C/c1ccc(O)c(O)c1)c1cc(O)c(O)c(O)c1 [5h]	0.7 ± 0.1 µM	> 500 µM	58.8 µM	> 500 µM	50.6 µM	17.9		0.86

The next lines start with results.

IC50 [1]	SMILES	IC50 (HCT-116; 24 h exposure)	IC50 (HCT-116; 72 h exposure)	IC50 (MRC-5; 24 h exposure)	IC50 (MRC-5; 72 h exposure)	stoichiometric factor (SF) [1]	selectivity index (SI) (HCT-116; after 24 h exposure)	selectivity index (SI) (HCT-116; after 72 h exposure)
22.1 ± 1.1 µM	COc1cc(/C=N/NC(=O)c2ccc(O)c(OC)c2)ccc1O [4e]	> 500 µM	> 500 µM	> 500 µM	> 500 µM	0.6		
6.3 ± 0.3 µM	COc1cc(C(=O)N/N=C/c2cc(OC)c(O)c(OC)c2)ccc1O [4f]	> 500 µM	> 500 µM	> 500 µM	> 500 µM	2		
> 100 µM	COc1cc(C(=O)N/N=C/c2ccc(O)cc2O)ccc1O [4g]	194 µM	> 500 µM	> 500 µM	307 µM			
3.4 ± 0.1 µM	COc1cc(C(=O)N/N=C/c2ccc(O)c(O)c2)ccc1O [4h]	> 500 µM	> 500 µM	> 500 µM	> 500 µM	3.7		
1.9 ± 0.1 µM	COc1cc(/C=N/NC(=O)c2cc(O)c(O)c(O)c2)ccc1O [5e]	> 500 µM	65.2 µM	> 500 µM	45.8 µM	6.6		0.70
